Measured values published in ChEMBL document CHEMBL5154782, “Discovery of Potent PROTACs Targeting EGFR Mutants through the Optimization of Covalent EGFR Ligands” (J Med Chem, 2022).
Calls of active or inactive are those of the source. The calls are words filed in the database; no cut-off is given here.

Key:
HCC827 [1] = assay: Antiproliferative activity against human HCC827 cells expressing EGFR deletion19 mutant assessed as inhibition of cell proliferation incubated for 72 hrs by MTT assay; format: functional, cell-based; settings: HCC827, 72 h
A-431 = assay: Antiproliferative activity against human A-431 cells expressing EGFR wildtype assessed as inhibition of cell proliferation incubated for 72 hrs by MTT assay; format: functional, cell-based; settings: A-431, 72 h
[2] = target: von Hippel-Lindau disease tumor suppressor/Epidermal growth factor receptor (Homo sapiens, UniProt P00533+P40337, L858R); assay: Protac activity at VHL/EGFR L858R mutant (unknown origin) assessed as inhibition of EGFR incubated for 40 mins in presence of ATP by Kinase Glo luminescence assay; format: protein assay
[3] = test system: von Hippel-Lindau disease tumor suppressor/Epidermal growth factor receptor (Homo sapiens), P00533+P40337 [L858R,T790M]; assay: Protac activity at VHL/EGFR L858R/T790M mutant in human NCI-H1975 cells assessed as induction of EGFR degradation at 100 nM incubated for 24 hrs by Western blot analysis relative to control; format: cell-based
[4] = target: von Hippel-Lindau disease tumor suppressor/Epidermal growth factor receptor (Homo sapiens, UniProt P00533+P40337, L858R/T790M); assay: Protac activity at VHL/EGFR L858R/T790M mutant (unknown origin) assessed as inhibition of EGFR incubated for 40 mins in presence of ATP by Kinase Glo luminescence assay; format: protein assay
NCI-H1975 [5] = assay: Antiproliferative activity against human NCI-H1975 cells expressing EGFR L858R/T790M mutant assessed as inhibition of cell proliferation incubated for 72 hrs by MTT assay; format: functional, cell-based; settings: NCI-H1975, 72 h
[6] = target: T1, von Hippel-Lindau disease tumor suppressor/Epidermal growth factor receptor (Homo sapiens, UniProt P00533+P40337); assay: Protac activity at VHL/EGFR wildtype in human HepG2 cells assessed as induction of EGFR degradation at 1000 nM incubated for 24 hrs by Western blot analysis; format: cell-based
[7] = test system: von Hippel-Lindau disease tumor suppressor/Epidermal growth factor receptor (Homo sapiens), P00533+P40337 [UNDEFINED MUTATION]; assay: Protac activity at VHL/EGFR/deletion19 in human HCC827 cells assessed as induction of EGFR degradation at 3 nM incubated for 24 hrs by Western blot analysis relative to control; format: cell-based
[8] = target: T2, von Hippel-Lindau disease tumor suppressor/Epidermal growth factor receptor (Homo sapiens, UniProt P00533+P40337, T790M/L858R); assay: Protac activity at VHL/[…] cells assessed as induction of EGFR degradation incubated for 48 hrs by Western blot analysis; format: cell-based
[9] = test system: von Hippel-Lindau disease tumor suppressor/Epidermal growth factor receptor (Homo sapiens), P00533+P40337 [L858R,T790M]; assay: Protac activity at VHL/EGFR L858R/T790M mutant in human NCI-H1975 cells assessed as induction of EGFR degradation at 30 nM incubated for 48 hrs by Western blot analysis; format: cell-based
NCI-H1975 [10] = assay: Inhibition of colony formation in human NCI-H1975 cells at 1 to 30 nM incubated for 10 days by crystal violet based assay; format: functional, cell-based; settings: dose 1-30 nM, time 10.0 day
[11] = target: T2, von Hippel-Lindau disease tumor suppressor/Epidermal growth factor receptor; assay: Protac activity at VHL/EGFR L858R/T790M mutant in human NCI-H1975 cells assessed as induction of EGFR degradation incubated for 48 hrs by Western blot analysis; format: cell-based
[12] = test system: von Hippel-Lindau disease tumor suppressor/Epidermal growth factor receptor (Homo sapiens), P00533+P40337 [L858R,T790M]; assay: Protac activity at VHL/EGFR L858R/T790M mutant in human NCI-H1975 cells assessed as decreased phosphorylated ERK at 100 nM incubated for 24 hrs by Western blot analysis; format: cell-based
[13] = target: T1, von Hippel-Lindau disease tumor suppressor/Epidermal growth factor receptor; assay: Protac activity at VHL/EGFR wildtype in human HCT116 cells assessed as induction of EGFR degradation at 1000 nM incubated for 24 hrs by Western blot analysis; format: cell-based; settings: HCT-116
HCC827 [14] = assay: Inhibition of colony formation in human HCC827 cells at 1 to 30 nM incubated for 10 days by crystal violet based assay; format: functional, cell-based; settings: dose 1-30 nM, time 10.0 day
NCI-H1975 [15] = assay: Antiproliferative activity against human NCI-H1975 cells expressing EGFR L858R/T790M/C797S mutant assessed as reduction on cell growth incubated for 72 hrs by MTT assay; format: functional, cell-based; settings: NCI-H1975, 72 h
[16] = test system: von Hippel-Lindau disease tumor suppressor/Epidermal growth factor receptor (Homo sapiens), P00533+P40337 [L858R,T790M]; assay: Protac activity at VHL/EGFR L858R/T790M mutant in human NCI-H1975 cells assessed as induction of EGFR L858R/T790M ubiquitination at 30 uM in presence of NEDD8 […] inhibitor incubated for 24 hrs by Western blot analysis; format: cell-based
HCC827 [17] = assay: Antiproliferative activity against human […] assessed as inhibition of cell proliferation incubated for 72 hrs by MTT assay; format: functional, cell-based; settings: HCC827, 72 h
PC-9 = assay: Antiproliferative activity against human PC-9 cells expressing EGFR deletion19/T790M/C797S mutant assessed as reduction on cell growth growth incubated for 72 hrs by MTT assay; format: functional, cell-based; settings: PC-9, 72 h
[18] = test system: von Hippel-Lindau disease tumor suppressor/Epidermal growth factor receptor (Homo sapiens), P00533+P40337 [L858R,T790M]; assay: Protac activity at VHL/EGFR L858R/T790M mutant in human NCI-H1975 cells assessed as induction of EGFR degradation at 10 nM incubated for 24 hrs by Western blot analysis relative to control; format: cell-based
[19] = test system: von Hippel-Lindau disease tumor suppressor/Epidermal growth factor receptor (Homo sapiens), P00533+P40337 [L858R,T790M]; assay: Protac activity at VHL/EGFR L858R/T790M mutant in human NCI-H1975 cells assessed as decreased phosphorylated ATK at 100 nM incubated for 24 hrs by Western blot analysis; format: cell-based
[20] = test system: Epidermal growth factor receptor (Homo sapiens), P00533 [L858R,T790M]; assay: Induction of EGRF L858R/T790M mutant degradation in human NCI-H1975 cells at 30 nM incubated for 8 hrs by western blot analysis; format: cell-based
[21] = test system: von Hippel-Lindau disease tumor suppressor/Epidermal growth factor receptor (Homo sapiens), P00533+P40337 [L858R,T790M]; assay: Protac activity at VHL/P-EGFR L858R/T790M mutant in human […] cells assessed as EGFR degradation at 30 nM incubated for 24 hrs followed by replacement with fresh medium without compound measured after 48 hrs by Western blot analysis; format: cell-based; settings: time 72.0 hrs
[22] = target: T1, von Hippel-Lindau disease tumor suppressor/Epidermal growth factor receptor; assay: Protac activity at VHL/EGFR wildtype in human HeLa cells assessed as induction of EGFR degradation at 1000 nM incubated for 24 hrs by Western blot analysis; format: cell-based
[23] = test system: von Hippel-Lindau disease tumor suppressor/Epidermal growth factor receptor (Homo sapiens), P00533+P40337 [L858R,T790M]; assay: Protac activity at VHL/EGFR L858R/T790M mutant in human NCI-H1975 cells assessed as induction of EGFR L858R/T790M ubiquitination at 30 uM in presence of lysosome chloroquine inhibitor incubated for 24 hrs by Western blot analysis; format: cell-based
BaF3 [24] = assay: Antiproliferative activity against mouse BaF3 cells expressing EGFR L858R/T790M/C797S mutant assessed as reduction on cell growth incubated for 72 hrs by MTT assay; format: toxicity, cell-based; settings: BaF3, 72 h
[25] = test system: von Hippel-Lindau disease tumor suppressor/Epidermal growth factor receptor (Homo sapiens), P00533+P40337 [UNDEFINED MUTATION]; assay: Protac activity at VHL/EGFR/deletion19 in human HCC827 cells assessed as induction of EGFR degradation at 30 nM incubated for 24 hrs by Western blot analysis relative to control; format: cell-based
[26] = test system: von Hippel-Lindau disease tumor suppressor/Epidermal growth factor receptor (Homo sapiens), P00533+P40337 [L858R,T790M]; assay: Protac activity at VHL/EGFR L858R/T790M mutant in human NCI-H1975 cells assessed as maximum EGFR degradation at 100 nM incubated for 48 hrs by western blot analysis; format: cell-based
[27] = test system: von Hippel-Lindau disease tumor suppressor/Epidermal growth factor receptor (Homo sapiens), P00533+P40337 [UNDEFINED MUTATION]; assay: Protac activity at VHL/EGFR deletion19 mutant in human HCC827 cells assessed as decreased phosphorylated ATK at 3 nM incubated for 24 hrs by Western blot analysis; format: cell-based
[28] = test system: von Hippel-Lindau disease tumor suppressor/Epidermal growth factor receptor (Homo sapiens), P00533+P40337 [UNDEFINED MUTATION]; assay: Protac activity at VHL/EGFR deletion19 mutant in human HCC827 cells assessed as decreased phosphorylated ERK at 3 nM incubated for 24 hrs by Western blot analysis; format: cell-based
[29] = test system: von Hippel-Lindau disease tumor suppressor/Epidermal growth factor receptor (Homo sapiens), P00533+P40337 [UNDEFINED MUTATION]; assay: Protac activity at VHL/EGFR deletion19 mutant in human HCC827 cells assessed as decreased phosphorylated EGFR at 3 nM incubated for 24 hrs by Western blot analysis; format: cell-based
[30] = test system: von Hippel-Lindau disease tumor suppressor/Epidermal growth factor receptor (Homo sapiens), P00533+P40337 [UNDEFINED MUTATION]; assay: Protac activity at VHL/EGFR deletion19 mutant in human HCC827 cells assessed as maximum EGFR degradation at 100 nM incubated for 48 hrs by western blot analysis; format: cell-based
BaF3 [31] = assay: Antiproliferative activity against mouse BaF3 cells expressing EGFR deletion19/T790M/C797S mutant assessed as reduction on cell growth incubated for 72 hrs by MTT assay; format: toxicity, cell-based; settings: BaF3, 72 h
[32] = test system: von Hippel-Lindau disease tumor suppressor/Epidermal growth factor receptor (Homo sapiens), P00533+P40337 [L858R,T790M]; assay: Protac activity at VHL/EGFR L858R/T790M mutant in human NCI-H1975 cells assessed as decreased phosphorylated EFGR signaling at 100 nM incubated for 24 hrs by Western blot analysis; format: cell-based
[33] = target: T2, von Hippel-Lindau disease tumor suppressor/Epidermal growth factor receptor; assay: Protac activity at VHL/EGFR L858R/T790M mutant in human NCI-H1975 cells assessed as induction of EGFR degradation; format: cell-based
NCI-H1975 [34] = assay: Antiproliferative activity against human NCI-H1975 cells expressing EGFR L858R/T790M mutant assessed as inhibition of cell proliferation; format: functional, cell-based
[35] = target: T1, von Hippel-Lindau disease tumor suppressor/Epidermal growth factor receptor; assay: Protac activity at VHL/EGFR deletion19 mutant in human PC9 cells assessed as induction of EGFR degradation; format: cell-based; settings: pc-9
[36] = target: T1, von Hippel-Lindau disease tumor suppressor/Epidermal growth factor receptor; assay: Protac activity at VHL/EGFR deletion19 mutant in human HCC827 cells assessed as induction of EGFR degradation; format: cell-based
HCC827 [37] = assay: Antiproliferative activity against human HCC827 cells expressing EGFR deletion19 mutant assessed as inhibition of cell proliferation; format: functional, cell-based

`C=CC(=O)N1CCC[C@H](n2c(Nc3ccccc3)nc3cnc(Nc4ccc(N5CCN(C)CC5)cc4)nc32)C1` showed an IC50 (HCC827 [1]) of 0.33 nM, an IC50 (A-431) of 7090 nM and an IC50 [2] of 21 nM. The Activity [3] was under 20%, the IC50 [4] was 38 nM and the IC50 (NCI-H1975 [5]) was 12 nM.

`C=CC(=O)N1CCC[C@H](n2c(Nc3ccccc3)nc3cnc(Nc4ccc(N5CCN(CCCCCCCC(=O)N[C@H](C(=O)N6C[C@H](O)C[C@H]6C(=O)N[C@@H](C)c6ccc(-c7scnc7C)cc6)C(C)(C)C)CC5)cc4)nc32)C1` was tested, and the Activity [6] was “Active”, the IC50 (HCC827 [1]) was 1.6 nM and the IC50 (A-431) was over 10000 nM. For the same compound, the Activity [7] was 70%, the DC50 [8] was 0.49 nM and the Activity [9] was “Active”. For the same compound, the inhibition (NCI-H1975 [10]) was “Active”, the DC50 [11] was 1.56 nM and the Activity [12] was “Active”. The Activity [13] was “Active”, the inhibition (HCC827 [14]) was “Active” and the IC50 (NCI-H1975 [15]) was over 10000 nM. The Activity [16] was “Active”, the IC50 (HCC827 [17]) was 1.6 nM and the IC50 (PC-9) was over 10000 nM. For the same compound, the Activity [18] was 51%, the Activity [3] was 77% and the Activity [19] was “Active”. For the same compound, the Activity [20] was “Active”, the Activity [21] was “Active” and the IC50 (NCI-H1975 [5]) was 32 nM. For the same compound, the Activity [22] was “Active”, the Activity [23] was “Active” and the IC50 (BaF3 [24]) was 669 nM. The Activity [25] was 74%, the Emax [26] was 86% and the Activity [27] was “Active”. For the same compound, the Activity [28] was “Active”, the Activity [29] was “Active” and the Emax [30] was 82%. The IC50 (BaF3 [31]) was 481 nM and the Activity [32] was “Active”.

`C=CC(=O)Nc1cc2c(Nc3ccc(F)c(Cl)c3)ncnc2cc1OCCCN1CCN(C(=O)CCCCCCNc2cccc3c2C(=O)N(C2CCC(=O)NC2=O)C3=O)CC1` (stereo not drawn) was tested, and the DC50 [33] was under 30 nM, the IC50 (NCI-H1975 [34]) was 26.5 nM and the DC50 [35] was 100 nM.

`O=C1CCC(N2Cc3c(NC(=O)CCCCCCN4CCN(c5ccc(Nc6cc7c(N8CCC(CO)CC8)nc(Nc8ccc(F)cc8)nc7cn6)nc5)CC4)cccc3C2=O)C(=O)N1` (stereo not drawn) was tested, and the DC50 [36] was 34.8 nM and the IC50 (HCC827 [37]) was 220 nM.
